# Assay results taken from patent US20180103638A1, “SOIL TREATMENT” (PeroxyChem LLC, priority 2016, published 2018).
# Entries after “also recorded” stand apart in the source; their conditions may differ. Read-outs that look alike come from different tables or passages of the source.
# What was measured:
# [1] = test system: Meloidogyne incognita and Meloidogyne hapla; format: in vivo
# From the text: (§1) Test method: A peracetic acid stock solution containing 5% PAA and 22% H2O2 (VigorOx® from PeroxyChem, LLC) was used for methods that specified 1750 ppm PAA. A peracetic acid stock solution containing 15% PAA and 10% H2O2 (VigorOx SP-15) was used for methods that specified 3525 ppm PAA. A stock solution of formaldehyde (37% in 10-15% methanol) was used to prepare a 1% aqueous solution of formaldehyde (with about 0.3% methanol).
# (§2) Solutions were applied as the soil drench with an application volume of 12 kL/ha. The Test Medium was: pasteurized 50:50 Loamy sand or pasteurized sand. The efficacy of PAA was evaluated in three different Greenhouse Test Assays: 1) the Tomato Root-knot Galling Index Assay using the nematode species Meloidogyne incognita and Meloidogyne hapla; 2) the Root-knot Nematode Egg Hatch Assay using the nematode species Meloidogyne incognita and Meloidogyne hapla; and 3) assay of levels of soil bacteria using Bacillus mycoides.
# Bacillus mycoides = format: cell-based; settings: treated four days, soil
# From the text: as §1, §2
# Soil was inoculated with Bacillus mycoides, incubated for five days and then treated with formaldehyde or […] for four days. Bacteria were collected from soil and their levels were evaluated based on colony forming units.
# [2] = test system: Meloidogyne incognita and Meloidogyne hapla; assay: Root-knot Nematode Egg Hatch Assay (soil drench); format: in vivo; settings: for % Egg Hatching: Example 3, 1 ml/cm^2, sand-loam soil, relative to distilled water control (100)
# From the text: as §1, §2
# The Root-knot Nematode Egg Hatch Assay was carried out essentially as follows. Eggs were collected from roots of infected tomato plants. To release the eggs, the egg masses were placed in a solution of sodium hypochlorite and manually shaken. The solution was centrifuged and the eggs washed with distilled water. Eggs were kept in the dark until needed for the experiments and used in the same day of collection. The experiments were performed in pots filled with pasteurized soil inoculated with about several thousands of individual eggs and then drenched with each treatment solution and controls. The treated soils were covered and incubated for the time periods indicated below. Following the incubation period, the soils were transferred to collect hatched J2 (second stage juveniles). The collected material was observed under the microscope and the number of J2 counted.
# Seedlings were inoculated and cultured in pasteurized Pemberton soil for 14 days. Seedlings were then treated with either formaldehyde, 1750 ppm PAA or 3525 ppm PAA for 13 days. Nematode eggs were extracted from infected roots and their ability to hatch was evaluated.
# Test method: A peracetic acid stock solution containing 15% PAA and 10% H2O2 (VigorOx SP-15) was used for methods that specified 3750, 5000, 7500, 10000 ppm PAA. Capryleth-9 carboxylic acid (C9CA) was used at concentrations of 5000 and 10000 ppm. A stock solution of formaldehyde (37% in 10-15% methanol) was used to prepare a 1% aqueous solution of formaldehyde. The final methanol concentration was about 0.3%.
# Solutions were applied as a soil drench with an application volume of 12 kL/ha. The Test Medium was pasteurized Pemberton loamy soil, sand or pasteurized sand. The efficacy of PAA was evaluated with the Root-Knot Nematode Egg Hatch Assay using the nematode species Meloidogyne incognita and Meloidogyne hapla.
# Seedlings were inoculated and cultured for 22 days and then treated for 21 days with either PAA alone at various concentrations, C9CA alone at various concentrations, or a combination of PAA and C9CA. Nematode eggs were extracted from infected roots and their ability to hatch was evaluated.
# Test method: A peracetic acid stock solution containing 15% PAA and 10% H2O2 (VigorOx SP-15) was used for methods that specified 3500 and 20,000 ppm PAA. Capryleth-9 carboxylic acid (C9CA) was used at concentrations of 250 and 10000 ppm.
# Solutions were applied as a soil drench with an application volume of 1 ml/cm^2. The Test Medium was pasteurized sand-loam soil. The efficacy of PAA was evaluated with the Root-knot Nematode Egg Hatch Assay using the nematode species Meloidogyne incognita and Meloidogyne hapla.
# The viability of the root-knot nematodes eggs used for each set of experiments in this example was also evaluated. Eggs were incubated with the different solutions in glass dishes in the dark at 25° C. They were observed daily under the microscope to confirm that the eggs were viable and able to hatch in water after 18 hr/24 hr of incubation.
# [3] = test system: Bacillus subtilis ATCC 19659; assay: Sporicidal assay in soil; format: cell-based; settings: 3525 ppm PAA; 1 hour, 2 and 7 days treatment
# Method: Test method: A peracetic acid stock solution containing 15% PAA and 10% H2O2 (VigorOx SP-15) was used for methods that specified 3525 ppm PAA. Deionized water was used as a control.
# Solutions were applied as the soil drench with an application volume of 1.5 ml/cm^2. The Test Medium was pasteurized Pemberton soil. The spore inoculum was Bacillus subtilis ATCC 19659. Spores were counted as follows: Soil was pasteurized to remove background microbial content. The soil was distributed into test cells. Concentrated Bacillus subtilis ATCC 19659 spore suspension was diluted in Butterfield's buffer and used as the inoculum in this test. For titer determination, the inoculum was diluted in Butterfield's buffer and plated on Petrifilm APC. In order to test for antimicrobial efficacy following treatments, soil was scooped from the cell and measured into a sterile plastic centrifuge tube. Deionized water was then added to each soil sample. The tubes were then capped, shaken to suspend soil, and vortexed at maximum speed using the lab vortex. The samples were allowed to settle for several seconds, and then 2 mL of fluid was removed from the tube. One ml of the removed sample was diluted in 9 mL Butterfield's buffer. The remainder of the removed sample was plated onto Petrifilm APC. […] The plates were all incubated at 30±2° C. for 2-5 days and then colonies on the plates were counted.
# [4] = test system: Aspergillus niger ATCC 16404; assay: Fungicidal assay in soil; format: cell-based
# Method: Test method: A peracetic acid stock solution containing 15% PAA and 10% H2O2 (VigorOx SP-15) was used for methods that specified 3500 and 20,000 ppm PAA. Capryleth-9 carboxylic acid (C9CA) was used at concentrations of 5000 and 30,000 ppm.
# Solutions were applied as a soil drench with an application volume of 1.5 ml/cm^2. The Test Medium was pasteurized Pemberton soil. The spore inoculum was Aspergillus niger ATCC 16404. The fungicidal activity of the compositions was evaluated as follows: Soil was pasteurized to remove background microbial content. The soil was the filled into test cells. Aspergillus niger ATCC 16404 was grown on Potato Dextrose Agar (PDA) plates for 5 days at 35° C. A culture for test was prepared by washing a plate with Butterfield's buffer, grinding in a sterile tissue grinder, and filtering through a cell filter to remove hyphae and debris. The suspension was diluted 1:100 in Butterfield's buffer and was added to the soil as the inoculum. The inoculum was enumerated on Petrifilm APC to determine the titer. In order to analyze antimicrobial efficacy following the treatments, soil was scooped from the cell and weighed into a sterile plastic cup. Sterile deionized water was added to the cup using a serological pipette. The cups were then capped, shaken to suspend soil, and vortexed at maximum speed using the lab vortex. The samples were allowed to settle for several seconds, and then 2 mL of fluid was removed from the tube. One ml of the removed fluid was diluted in 9 mL Butterfield's buffer. The remaining removed fluid was plated onto Petrifilm Petrifilm YM. The diluted sample was further serially diluted and plated to 10^−3 on YM. The plates were all incubated at 35±2° C. for 3 to 4 days and colonies were counted.
molecule,measurement,setting,value
"C=O [Formaldehyde, formaldehyde, reference compound]",Root-knot Galling Index,[1]; in vivo,2
same,% Reduction in population (CFU's),Bacillus mycoides; at 1%,42.5%
same,% Reduction of J2 Population,[2]; in vivo,60%
same,% Reduction of J2 population,[2]; in vivo,78%
"CC(=O)OO [PAA, peracetic acid]",bacterial spores capable of giving rise to viable colonies recovered,[3],no bacterial spores capable of giving rise to viable colonies were recovered
same,Root-knot Galling Index,"[1]; 1750 ppm PAA, soil drench 12 kL/ha, treated 27 days, scale 0=no galling to 10=severe galling",only a modest reduction
same,% Reduction in population (CFU's),Bacillus mycoides; 1750 ppm PAA,47.5%
same,% Reduction of J2 population,"[2]; Example 1, 1750 ppm PAA, 12 kL/ha, treated 13 days, Pemberton soil",did not reduce
same,% Reduction of J2 population,"[2]; Example 1, 3525 ppm PAA, 12 kL/ha, treated 13 days, Pemberton soil",51%
same,% Reduction of J2 Population,"[2]; Example 2, 5000 ppm PAA, 12 kL/ha, 21 days after treatment",20%
same,% Reduction of J2 Population,"[2]; Example 2, 10000 ppm PAA, 12 kL/ha, 21 days after treatment",28%
same,% Egg Hatching,[2]; 20000 ppm PAA,53%
same,Log10 CFU,"[4]; 3500 ppm PAA, 1 hour",3.2 Log10 CFU
same,Log10 CFU,"[4]; 3500 ppm PAA, 24 hours",0.0 Log10 CFU
same,Log10 Reduction,"[4]; 3500 ppm PAA, 24 hours",completely eliminated; also recorded: Total kill
same,elimination of Aspergillus niger,"[4]; 7000 ppm PAA, one hour of treatment",complete elimination
same,Log10 CFU,"[4]; 7500 ppm PAA, 1 hour",0.0 Log10 CFU
same,Log10 Reduction,"[4]; 7500 ppm PAA, 1 hour",Total kill
same,Log10 CFU,"[4]; 7500 ppm PAA, 24 hours",0.0 Log10 CFU
same,Log10 Reduction,"[4]; 7500 ppm PAA, 24 hours",Total kill
Capryleth-9 Carboxylic Acid [C9CA],% Reduction of J2 Population,"[2]; Example 2, 10000 ppm C9CA, 12 kL/ha, 21 days after treatment",10%
same,% Egg Hatching,[2]; 250 ppm C9CA,66%
